# Publication PMC5610309, “In vivo target exploration of apidaecin based on Acquired Resistance induced by Gene Overexpression (ARGO assay)” (Scientific Reports, 2017)
# Where no end group is shown, it is not given here. [ ]: non-standard residue; d: D form.
# Experiments:
# [1] = tested on: enoyl-ACP reductase (FabI); test: ARGO assay, positive control, FabI-overexpressing E. coli; format: cell-based, Escherichia coli; conditions: 250 nM triclosan; increasing IPTG (Fig. S2)
# Protocol: IPTG Concentration / μM IPTG Concentartion / μM
# Figure S2. Acquired resistance assay induced by overexpression of target proteins. A:
# concentration. Black line: no triclosan (OD Tc(-)). Gray line: 250 nM triclosan (OD Tc(+)).
# overexpression. […] Black line: no
# trimethoprim. Gray line: 125 μM trimethoprim. D: The degree of resistance against
# [2] = tested on: dihydrofolate reductase (FolA); conditions: 125 μM trimethoprim; increasing IPTG (Fig. S2)
# Protocol: (§4) The recombinant E. coli strain JM109 harboring pCA24N derivatives were grown on 2 mL LB medium containing 30 µg/mL chloramphenicol in a test tube, with reciprocal shaking at 175 rpm at 37 °C for 18 h. A total of 80 μL culture medium was transferred into fresh 2 mL LB medium containing 30 µg/mL chloramphenicol and different concentrations of IPTG (see Supplementary Information for detail), and further incubated at 37 °C with until the OD at 600 nm reached 0.4. The pre-culture was diluted 10^5 times with PB medium containing 30 µg/mL chloramphenicol so that the initial cell density was approximately 1000 colony forming units/mL. Then a 50 µL aliquot was combined with a 50 µL mixture of apidaecin and IPTG (final concentration of apidaecin was 6.25 µM). As a control, 50 µL IPTG and 50 µL sterilized water were added, respectively. The cells were cultivated in 96-well plates using a microplate shaker (BioShaker M-BR-024 Taitec, Shizuoka, Japan) with shaking at 1200 rpm at 30 °C for 18 h. […] Cell growth in a 96-well plate was optically measured using a microplate reader (iMark Microplate Absorbance Reader, Bio-rad) at a wavelength of 595 nm. The degree of resistance against apidaecin was defined as the OD obtained with the addition of IPTG and apidaecin divided by the OD with the addition of IPTG only.1 Degreeofresistance=ODwithapidaecinandIPTG/ODwithIPTG […]
# [3] = tested on: PrfB; test: ARGO assay, apidaecin resistance of PrfB-overexpressing E. coli (ASKA clone); format: cell-based, Escherichia coli; conditions: 6.25 μM apidaecin; E. coli JM109 ASKA clone, IPTG-induced; 30 °C, 18 h; OD595
# Protocol: as §4
# [4] = tested on: β-galactosidase protein synthesis in E. coli MG1655; test: Immunoblot analysis of native LacZ; format: cell-based, Escherichia coli; conditions: 500 μM and 0.1 mM IPTG
# Protocol: (§1) The 96-well plate culture was started following Procedure B. After 60 min, 0.1 mM IPTG was added and the plate was incubated for an additional 60 min.
# (§2) The E. coli strain MG1655 from Procedure C were harvested and suspended in lysis buffer containing 50 mM sodium phosphate (pH 7.0), 10 mM imidazol, and 300 mM NaCl. The OD was normalized using lysis buffer, after which the crude extract was prepared using sonication on ice 5 s × 5 times. Anti-β-galactosidase antibody (Biotin) ab6645 was purchased from abcam (Cambridge, UK) and used at a 10^5-fold dilution. Immun-Star Goat Anti-Rabbit (GAR)-HRP Conjugate (Biorad) was used as the secondary antibody. Bands were detected using the ECL Select Western Blotting Detection Reagent (GE Healthcare, Little Chalfont, UK) and were recorded on ChemiDox XRS (Biorad). Band density was quantified using ImageJ software.
# [5] = tested on: lacZ mRNA transcription in E. coli MG1655; test: Quantification of lacZ mRNA by real-time reverse transcriptase-PCR; format: cell-based, Escherichia coli; conditions: 500 μM and 0.1 mM IPTG; quantitative real-time PCR
# Protocol: as §1
# The E. coli strain MG1655 from Procedure C were harvested by centrifugation at 4 °C, and total RNA was extracted using Isogen (Nippongene, Toyama, Japan) according to the manufacturer’s instructions. The reverse transcriptase reaction was performed using PrimeScript RT-PCR Kit (Takara, Tokyo, Japan) based on the provided protocol. The lacZ fragment was amplified using a pair of primers: lacZ_RTf1, […] and lacZ_RTr1, with […] used as the standard. The standard curve was made in the range of 10^−3 to 10^−7 ng DNA/μL. A total of 6 μL reverse transcriptase reaction product was combined with 10 μL TaqMan Gene Expression Master Mix (Applied Biosystems, Foster City, CA, USA), 1 μL lacZ_RTf1, 1 μL lacZ_RTr1, and 2 μL TaqMan probe lacZ_2116, […], which was bound to fluorescein as a reporter and NFQ-MGB as a quencher. The samples were prepared in triplicate and transferred to a MicroAmp Fast Optical 48-well Reaction Plate (Applied Biosystems) and sealed with a MicroAmp Optical 48-well Adhesive Film. The plate was centrifuged at 1,970 g for 10 min at 4 °C. Real-time PCR (qPCR) was performed using the StepOne real-time PCR system (Applied Biosystems). […]
# [6] = tested on: lacZ reporter gene expression in E. coli MG1655; test: Inhibition assay of LacZ expression (X-gal chromogenesis); format: cell-based, Escherichia coli; conditions: 500 μM; E. coli treated 1 h, then IPTG; ΔOD595 with and without X-gal; three trials
# Protocol: (§3) The 96-well plate culture was started as well as Procedure B with a modification that the cells were resuspended in 1 mL PB medium containing 100 μg/ml 5-bromo-4-chloro-3-indolyl-β-D-galactopyranoside (X-gal). After 60 min, 0.1 mM IPTG was added and the plate was further incubated for 120 min. The OD of the culture in the test tube was measured using a UV-VIS spectrophotometer (Genesys20, Thermo Scientific, Waltham, MA, USA) at 600 nm, and OD in the 96-well plate was monitored at 595 nm using an iMark Microplate Absorbance Reader (Biorad, Hercules, CA, USA).
# E. coli MG1655 cells were cultivated using Procedure D. The activity of LacZ was estimated based on the subtraction of ODs at 595 nm obtained with and without supplement of X-gal.
# [7] = tested on: E. coli; test: Growth of E. coli in 96-well plate culture with antimicrobial agent; format: cell-based, Escherichia coli; conditions: 500 μM
# Protocol: E. coli were grown on 2 mL LB medium in a test tube containing 10 g/L trypton, 5 g/L Bacto yeast extract, and 10 g/L sodium chloride, with reciprocal shaking at 175 rpm at 30 °C for 14 h. A total of 20 μL culture medium was transferred into 2 mL fresh LB medium and incubated at 30 °C until the OD at 600 nm reached 0.2.
# The cells from Procedure A were washed with 2 mL PB medium containing 10 g/L trypton and 9 g/L sodium chloride, and re-suspended in 1 mL PB medium. A total of 80 μL medium was combined with 20 μL antimicrobial agents, followed by incubation in a 96-well plate at 30 °C for 4 h with shaking at 1200 rpm.
# as §3
# [8] = tested on: peptide chain release factor 1 (PrfA); test: ARGO assay, apidaecin resistance of PrfA-overexpressing E. coli (ASKA clone); format: cell-based, Escherichia coli; conditions: 6.25 μM apidaecin; E. coli JM109 ASKA clone, IPTG-induced; 30 °C, 18 h; OD595; three trials
# Protocol: as §4
# [9] = tested on: lacZ expression in MG1655(lacZ-UAA), MG1655(lacZ-UGA), MG1655(lacZ-UAG); test: In vivo inhibitory assay of lacZ expression with different stop codons (immunoblot); format: cell-based, Escherichia coli; conditions: 250 and 500 μM apidaecin
# Protocol: as §2
# The C-terminal region of the lacZ gene in E. coli chromosomal DNA was replaced with three DNA fragments containing three stop codons (Fig. S4). The DNA fragments including a flippase recognition target (FRT) cassette with a kanamycin-resistant gene, and the C-terminal sequence of the lacZ gene with three stop codons, were amplified from pKD13 using three forward primers: […], […], and […] (stop codons are underlined), and a reverse primer: […]. The template DNA in the PCR products was removed by DpnI treatment. […] Ampicilline-sensitive colonies were chosen and recombination in their chromosomal DNA was evaluated by colony PCR and sequencing. […]
# [10] = tested on: lacZ expression in PURE system (PrfA-dependent termination); test: Inhibitory assay using the in vitro transcription-translation system (PURE system); format: biochemical; conditions: 200 μM apidaecin; for inhibition ratio of lacZ (UAG) expression: PrfB omitted, 37 °C, 3 h, immunoblot
# Protocol: The PCR products were purified by agarose gel extraction and used for second PCR to add the T7 promoter sequence using a forward primer 2, […], and aforementioned reverse primers. The amplified DNA was treated with chloroform/phenol/isoamyl alcohol, concentrated by ethanol precipitation, and diluted to 100 ng/μl using RNase free water. The DNA solution was used for in vitro transcription-translation reaction using PUREfrex ver 1.0 (GeneFrontier Corp., Chiba, Japan). The solution I, II, and III provided by the kit protocol was combined with the apidaecin solution to contain 0 to 200 μM apidaecin. […] Ten microliter solution I, 1 μL solution II, 1 μL solution III, 0.1 μL 6 μM T7 RNA polymerase, 0.5 μL 4 or 0.8 μM RF1, 0.5 μL 4 μM RF3, 0.5 μL 40 μM RRF, and 0–4 μL 1 mM apidaecin were combined and diluted to 19 μL with RNAse free water. The mixture was incubated at room temperature for 15 min, and 1 μL template DNA (LacZ [UAG]) was added. Then the mixture was further incubated at 37 °C from 3 h. Then 1 μL reaction mixture was used for immnoblot analysis.
# [11] = tested on: E. coli; conditions: relative to wild type apidaecin Ho +; cited from earlier work
compound,measurement,setting,value
Oc1cc(Cl)ccc1Oc1ccc(Cl)cc1Cl [triclosan],sensitivity of E. coli upon overexpression of FabI,[1],reduced the sensitivity
COc1cc(Cc2cnc(N)nc2N)cc(OC)c1OC [trimethoprim],sensitivity of E. coli upon overexpression of FolA,[2],reduced the sensitivity
"GNNRPVYIPQPRPPHPRL [apidaecin, Apidaecin Ib, proline-rich AMP isolated from the hemolymph of honeybees; purchased from Bex Corp]",cell growth in the presence of apidaecin upon PrfB overexpression,[3],did not promote cell growth
same,β-galactosidase protein synthesis,[4],considerably diminished
same,influence on lacZ mRNA transcription,[5],no significant influence
same,inhibition of β-galactosidase-mediated chromogenesis,[6],almost completely inhibited
same,inhibition of cell growth,"[7]; PB medium, 96-well plate, 30 °C, OD595, three trials",almost completely inhibited
same,degree of resistance against apidaecin upon PrfA overexpression (OD with apidaecin and IPTG / OD with IPTG),[8],up to 80%
same,expression levels of whole proteins,"[9]; SDS-PAGE, all three stop codon constructs",decreased expression levels of whole proteins
same,"degree of inhibition of lacZ expression, UAG stop codon versus other constructs","[9]; immunoblot anti-LacZ, UAG recognized only by PrfA",considerably stronger inhibition
same,inhibition efficiency of lacZ expression by stop codon,"[10]; lacZ-UAA, lacZ-UGA, lacZ-UAG templates, UAG stop codon",most efficient inhibition
same,inhibition ratio of lacZ (UAG) expression,[10]; low PrfA concentration (20 nM PrfA),45%
same,inhibition ratio of lacZ (UAG) expression,[10]; standard PrfA concentration (100 nM PrfA),21%
L17D-L mutant of apidaecin Ho + (GKPRPQQVPPRPPHPR[dL]),antibacterial activity toward E. coli compared to wild type peptide,[11],0.1 fold
L18dL apidaecin 1b,antimicrobial effect against E. coli,[7]; data not shown,no antimicrobial effect
